From patent publication US20140094465A1, “Compounds as S-Nitrosoglutathione Reductase Inhibitors” (N30 PHARMACEUTICALS, INC., priority 2011, published 2014)

Molecular target: T1, S-nitrosoglutathione reductase (GSNOR) (Homo sapiens, UniProt P11766)
T1 construct: made in house; host or cells: E. coli
Assay: GSNOR assay (inhibition of GSNOR activity, NADH absorbance at 340 nm)
Format: biochemical
Settings: GSNOR inhibitor activity, Tables 1-6; read-out: IC50 range
Method in brief: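 Recombinant GSNOR purified from E. coli, tag removed. Final conditions: 100 mM NaPO4 pH 7.4, 0.240 mM GSNO, 0.300 mM NADH, 0.5 μg/mL enzyme, 1% DMSO; NADH loss followed as 340 nm absorbance change over 3 min at 25 °C. Compounds 100–0.003 μM, triplicate; IC50 by curve analysis.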

T1 sequence (P11766 whole entry): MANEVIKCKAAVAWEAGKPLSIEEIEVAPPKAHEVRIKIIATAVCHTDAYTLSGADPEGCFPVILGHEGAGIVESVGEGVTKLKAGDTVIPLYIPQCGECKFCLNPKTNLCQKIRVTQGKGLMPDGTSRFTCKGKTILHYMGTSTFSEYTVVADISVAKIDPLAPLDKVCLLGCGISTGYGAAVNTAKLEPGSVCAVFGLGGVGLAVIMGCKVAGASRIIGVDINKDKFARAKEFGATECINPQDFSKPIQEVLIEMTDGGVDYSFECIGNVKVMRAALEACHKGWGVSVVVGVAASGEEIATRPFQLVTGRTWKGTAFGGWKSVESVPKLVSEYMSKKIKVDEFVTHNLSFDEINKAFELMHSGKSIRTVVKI

| Structure (SMILES) | IC50 |
| --- | --- |
| O=C(O)c1ccc(Sc2c(C(F)(F)F)oc3cc(O)ccc3c2=O)cc1 [Compound V-11, 4-(7-hydroxy-4-oxo-2-(trifluoromethyl)-4H-chromen-3-ylthio)benzoic acid] | 1000 to 10000 nM |
| O=c1nc(-c2ccc(-c3ccc4cc(O)ccc4n3)cc2)s[nH]1 [Compound I-39] | 100 to 1000 nM |
| O=C(O)c1ccc(-c2ccc3cc(O)ccc3n2)cc1Cl [Compound I-9] | 1000 to 10000 nM |
| O=c1[nH]c(-c2ccc(-c3c(C(F)(F)F)oc4cc(O)ccc4c3=O)c(Cl)c2)no1 [IV-40] | < 100 nM |
| O=c1[nH]c(-c2ccc(-c3c(C(F)(F)F)oc4cc(O)ccc4c3=O)cc2)ns1 [IV-33] | < 100 nM |
| O=C(O)c1ccc(-c2ncc3cc(O)ccc3n2)c(Cl)c1 [II-3] | < 100 nM |
| Cc1cc2cc(O)ccc2nc1-c1ccc(C(=O)O)cc1 [Compound I-1] | < 100 nM |
| O=C(O)c1ccc(COc2ccc(O)c(F)c2)c(F)c1 [VI-23, 3-fluoro-4-((3-fluoro-4-hydroxyphenoxy)methyl)benzoic acid] | 100 to 1000 nM |
| CN(C)c1cc(C(=O)O)ccc1-c1ccc2cc(O)ccc2c1 [III-5] | < 100 nM |
| O=C(O)c1ccc(Oc2c(C(F)(F)F)oc3cc(O)ccc3c2=S)cc1 [Compound V-4, 4-((7-hydroxy-4-thioxo-2-(trifluoromethyl)-4H-chromen-3-yl)oxy)benzoic acid] | 100 to 1000 nM |
| N#Cc1c(-c2ccc(C(=O)O)cc2F)ccc2cc(O)ccc12 [III-29] | < 100 nM |
| O=C(O)c1ccc(-c2ccc3c(F)c(O)ccc3n2)cc1 [Compound I-53, 4-(5-fluoro-6-hydroxyquinolin-2-yl)benzoic acid] | < 100 nM |
| O=C(O)c1ccc(C[S+]([O-])c2ccc(O)cc2)c(F)c1 (stereo not shown) [VI-25, 3-fluoro-4-(((4-hydroxyphenyl)sulfinyl)methyl)benzoic acid] | 100 to 1000 nM |
| Cc1cc2cc(O)ccc2cc1-c1ccc(C(=O)O)cc1 [III-27, 4-(6-hydroxy-3-methylnaphthalen-2-yl)benzoic acid] | < 100 nM |
| O=C(O)c1ccc(CC(=O)c2ccc(O)cc2F)c(F)c1 [VI-2, 3-fluoro-4-(2-(2-fluoro-4-hydroxyphenyl)-2-oxoethyl)benzoic acid] | < 100 nM |
| O=C(O)c1ccc(-c2ccc3c(F)c(O)ccc3n2)c(F)c1 [Compound I-56] | < 100 nM |
| O=C(O)c1ccc(CC(=O)c2ccc(O)c(F)c2)c(F)c1 [VI-4, 3-fluoro-4-(2-(3-fluoro-4-hydroxyphenyl)-2-oxoethyl)benzoic acid] | < 100 nM |
| O=C(O)[C@H]1CC[C@H](c2nc3ccc(O)cc3cc2Cl)CC1 [Compound I-35] | 100 to 1000 nM |

| Structure (SMILES) | IC50 |
| --- | --- |
| Oc1ccc2cc(-c3ccc(-c4nnn[nH]4)cc3)ccc2c1 [III-18] | < 100 nM |
| O=C(O)c1ccc(-c2cc3ccc(O)cc3cc2Cl)cc1 [III-22, 4-(3-chloro-6-hydroxynaphthalen-2-yl)benzoic acid] | < 100 nM |
| Cc1cc(C(=O)O)ccc1-c1ncc2cc(O)ccc2n1 [II-4] | < 100 nM |
| O=C(O)c1ccc(-c2c(C(F)(F)F)oc3cc(O)ccc3c2=O)s1 [IV-24] | < 100 nM |
| O=C(O)c1ccc(CC(=O)c2ccc(O)cc2O)c(F)c1 [VI-18, 4-(2-(2,4-dihydroxyphenyl)-2-oxoethyl)-3-fluorobenzoic acid] | 100 to 1000 nM |
| O=C(O)c1ccc(-c2ccc3cc(O)ccc3c2)cn1 [III-4] | 1000 to 10000 nM |
| Cc1sc2cc(O)ccc2c(=O)c1-c1ccc(-c2nnn[nH]2)cc1 [IV-34] | < 100 nM |
| COc1cc(C(=O)O)ccc1-c1ccc2cc(O)ccc2n1 [Compound I-14] | < 100 nM |
| O=C(O)c1ccc(CC(=O)c2ccc(O)cc2)cc1 [VI-11, 4-(2-(4-hydroxyphenyl)-2-oxoethyl)benzoic acid] | 100 to 1000 nM |
| O=C(O)c1ccc(-c2nc3ccc(O)cc3nc2C(F)(F)F)c(Cl)c1 [II-8] | < 100 nM |
| O=c1[nH]c(-c2ccc(-c3c(C(F)(F)F)oc4cc(O)ccc4c3=O)c(F)c2)no1 [IV-41] | < 100 nM |
| O=C(O)c1ccc(-c2c(C(F)(F)F)oc3cc(O)ccc3c2=O)cc1F [IV-14] | < 100 nM |
| O=C(O)c1ccc(-c2ccc3c(F)c(O)ccc3n2)c(Cl)c1 [Compound I-57] | < 100 nM |
| O=c1nc(-c2ccc(-c3ccc4cc(O)ccc4n3)cc2)o[nH]1 [Compound I-34] | 100 to 1000 nM |
| O=C(O)c1ccc(-c2ccc3cc(O)ccc3n2)s1 [Compound I-15] | 1000 to 10000 nM |
| Cc1cc(C(=O)O)ccc1-c1c(C(F)(F)F)oc2cc(O)ccc2c1=O [IV-43] | < 100 nM |
| Cc1cc(C(=O)O)ccc1-c1cc(F)c2c(F)c(O)ccc2c1 [III-41, 4-(4,5-difluoro-6-hydroxynaphthalen-2-yl)-3-methylbenzoic acid] | < 100 nM |

Same assay, conditions: GSNOR; read-out: IC50

| Structure (SMILES) | IC50 |
| --- | --- |
| O=C(O)c1ccc(CC(=O)c2ccc(O)cc2F)c(F)c1 [VI-2, 3-fluoro-4-(2-(2-fluoro-4-hydroxyphenyl)-2-oxoethyl)benzoic acid] | < 100 nM |

Same assay, conditions: Table 7; GSNOR inhibition, IC50 range class a/b/c; read-out: IC50

| Structure (SMILES) | IC50 |
| --- | --- |
| O=C(O)c1cccc(-c2csc(-c3ccc(O)c(F)c3)n2)c1 [VII-5, 3-(2-(3-fluoro-4-hydroxyphenyl)thiazol-4-yl)benzoic acid] | 100 to 1000 nM |
| O=C(O)c1ccc(-c2ccc(-c3ccc(O)c(F)c3)s2)cc1 [VII-7, 4-(5-(3-fluoro-4-hydroxyphenyl)thiophen-2-yl)benzoic acid] | 100 to 1000 nM |
| COCCn1c(-c2ccc(O)cc2)ccc1-c1ccc(C(=O)O)s1 [VII-25, 5-(5-(4-hydroxyphenyl)-1-(2-methoxyethyl)-1H-pyrrol-2-yl)thiophene-2-carboxylic acid] | < 100 nM |
| O=C(O)c1ccc(-c2cc(-c3ccc(O)cc3)cs2)s1 [VII-19, 4′-(4-hydroxyphenyl)-[2,2′-bithiophene]-5-carboxylic acid] | 100 to 1000 nM |
| COCCn1c(-c2ccc(O)cc2)ccc1-c1ccc(C(=O)O)cc1 [VII-33, 4-(5-(4-hydroxyphenyl)-1-(2-methoxyethyl)-1H-pyrrol-2-yl)benzoic acid] | 100 to 1000 nM |
| O=C(O)c1ccc(-c2cnc(-c3ccc(O)cc3)s2)s1 [VII-16, 5-(2-(4-hydroxyphenyl)thiazol-5-yl)thiophene-2-carboxylic acid] | < 100 nM |
| O=C(O)c1ccc(-c2ccc(-c3ccc(O)cc3)cc2)s1 [VII-21, 5-(4′-hydroxy-[1,1′-biphenyl]-4-yl)thiophene-2-carboxylic acid] | 100 to 1000 nM |
| CC(C)CCCn1c(-c2ccc(O)cc2)ccc1-c1ccc(C(=O)O)cc1 [VII-30, 4-(5-(4-hydroxyphenyl)-1-(4-methylpentyl)-1H-pyrrol-2-yl)benzoic acid] | < 100 nM |
| O=C(O)c1ccc(-c2csc(-c3ccc(O)cc3)c2)s1 [VII-20, 5′-(4-hydroxyphenyl)-[2,3′-bithiophene]-5-carboxylic acid] | 100 to 1000 nM |
| O=C(O)c1ccc(-c2ccc(-c3ccc(O)cc3F)s2)cc1 [VII-8, 4-(5-(2-fluoro-4-hydroxyphenyl)thiophen-2-yl)benzoic acid] | 100 to 1000 nM |

Same assay, conditions: Table 8; GSNOR inhibition, IC50 range class a/b/c; read-out: IC50

| Structure (SMILES) | IC50 |
| --- | --- |
| Cc1cc2cc(O)ccc2c(=O)n1-c1ccc(C(=O)O)cc1 [VIII-13, 4-(6-hydroxy-3-methyl-1-oxoisoquinolin-2(1H)-yl)benzoic acid] | 100 to 1000 nM |
| O=C(O)c1ccc(-c2cc(=O)c3cc(O)ccc3[nH]2)c(F)c1 [VIII-8, 3-fluoro-4-(6-hydroxy-4-oxo-1,4-dihydroquinolin-2-yl)benzoic acid] | 1000 to 10000 nM |
| O=c1c2ccc(O)cc2cc(C(F)(F)F)n1[C@H]1CC[C@H](C(=O)O)CC1 [VIII-15, (trans)-4-(6-hydroxy-1-oxo-3-(trifluoromethyl)isoquinolin-2(1H)-yl)cyclohexanecarboxylic acid] | < 100 nM |
